Measured values reported in patent US10597388B2, “Pyridazinone herbicides” (FMC CORPORATION, priority 2014, dated 2020).

How the values were obtained:
Assay type in all cases: in vivo
[1] = test system: deadnettle (henbit deadnettle, Lamium amplexicaule); test: Test D controlled growth environment herbicide test, pre- and postemergence
Outline: (§1)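 Rating is visual, 0–100 scale (100 = complete control), made against untreated plants 14–21 d after treatment in controlled growth conditions. Postemergence sprays went onto 1- to 4-leaf plants in peat medium; preemergence sprays onto silt loam after sowing; formulation included a surfactant.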

[2] = test system: wild poinsettia (Euphorbia heterophylla); test: Test E greenhouse herbicide test, pre- and postemergence
Outline: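 Visual rating vs untreated controls, 0 = no effect, 100 = complete control, after 14–21 d greenhouse. Pre: seeded silt loam treated with surfactant-containing solvent formulation. Post: 1–4-leaf plants (2–18 cm) in peat/vermiculite medium.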

[3] = test system: waterhemp_RES1 (ALS & Triazine resistant common waterhemp, Amaranthus rudis); test: Test E greenhouse herbicide test, postemergence
Method: (§2) At the same time, plants from these crop and weed species and also waterhemp_RES1, (ALS & Triazine resistant common waterhemp, Amaranthus rudis), and waterhemp_RES2, (ALS & HPPD resistant common waterhemp, Amaranthus rudis) were planted in pots containing Redi-Earth® planting medium (Scotts Company, 14111 Scottslawn Road, Marysville, Ohio 43041) comprising spaghnum peat moss, vermiculite, wetting agent and starter nutrients were treated with postemergence applications of test chemicals formulated in the same manner. Plants ranged in height from 2 to 18 cm for postemergence treatments (1- to 4-leaf stage). Treated plants and controls were maintained in a greenhouse for 14 to 21 d, after which time all species were compared to controls and visually evaluated. Plant response ratings, summarized in Table E, are based on a scale of 0 to 100 where 0 is no effect and 100 is complete control. A dash (-) response means no test result.

[4] = test system: waterhemp_RES2 (ALS & HPPD resistant common waterhemp, Amaranthus rudis); test: Test E greenhouse herbicide test, postemergence
Method: as §2

[5] = test system: Canada thistle (Cirsium arvense); test: Test D controlled growth environment herbicide test, pre- and postemergence; conditions: for Canada Thistle plant response rating / Plant response rating (scale of 0 to 100), Canada Thistle: 31 g ai/ha
Outline: as §1

[6] = test system: geranium, cutleaf (cutleaf geranium, Geranium dissectum); test: as above
Outline: as §1

[7] = Postemergence, 31 g ai/ha, scale 0 to 100 (0 no effect, 100 complete control)
[8] = Postemergence, 125 g ai/ha, visual rating on scale 0 (no effect) to 100 (complete control), 14 to 21 d
[9] = Postemergence, 250 g ai/ha, scale 0 to 100 (0 no effect, 100 complete control)
[10] = Preemergence, 125 g ai/ha, scale 0 to 100 (0 no effect, 100 complete control)
[11] = Preemergence, 250 g ai/ha, scale 0 to 100 (0 no effect, 100 complete control)
[12] = postemergence, 62 g ai/ha, scale 0 to 100, 0 no effect, 100 complete control
[13] = 62 g ai/ha, Postemergence, scale 0 to 100 (0 no effect, 100 complete control)
[14] = 125 g ai/ha, Postemergence, scale 0 to 100 (0 no effect, 100 complete control)
[15] = 125 g ai/ha, Preemergence, scale 0 to 100 (0 no effect, 100 complete control)
[16] = 250 g ai/ha, Postemergence, scale 0 to 100 (0 no effect, 100 complete control)
[17] = Postemergence, 31 g ai/ha, visual, scale 0 no effect to 100 complete control
[18] = Preemergence, 31 g ai/ha, scale 0 to 100, 0 no effect, 100 complete control
[19] = Preemergence, 250 g ai/ha, visual, scale 0 no effect to 100 complete control
[20] = 31 g ai/ha, visual, scale 0 no effect to 100 complete control
[21] = 125 g ai/ha, scale 0 to 100 (0 no effect, 100 complete control)
[22] = 250 g ai/ha, scale 0 to 100 (0 no effect, 100 complete control)
[23] = Postemergence, scale 0 to 100 (0 no effect, 100 complete control)
[24] = Preemergence, 62 g ai/ha, scale 0 to 100 (0 no effect, 100 complete control)
[25] = Postemergence, 16 g ai/ha, visual, scale 0 no effect to 100 complete control
[26] = 16 g ai/ha, visual, scale 0 no effect to 100 complete control
[27] = Preemergence, scale 0 to 100, 0 no effect, 100 complete control

Row | SMILES | Deadnettle plant response rating [1, 7] | Plant response rating, Deadnettle [1, 8] | Plant response rating, Deadnettle [1, 9] | Plant response rating (scale of 0 to 100), Deadnettle ([1]; Preemergence, 31 g ai/ha) | Plant response rating (scale of 0 to 100), Deadnettle ([1]; Preemergence, 62 g ai/ha) | Plant response rating, Deadnettle [1, 10] | Plant response rating, Deadnettle [1, 11] | Plant response rating, Deadnettle [1, 12] | Plant response rating, Poinsettia, Wild [2, 13] | Plant response rating, Poinsettia, Wild [2, 14] | Plant response rating, Poinsettia, Wild [2, 15] | Plant response rating, Poinsettia, Wild [2, 17] | Plant response rating, Poinsettia, Wild [2, 18] | Plant response rating, Waterhemp_RES1 [3, 20] | Plant response rating, Waterhemp_RES1 [3, 21] | Plant response rating, Waterhemp_RES2 [4, 20] | Plant response rating, Waterhemp_RES2 [4, 21] | Canada Thistle plant response rating [5, 23] | Plant response rating, Canada Thistle [5, 8] | Plant response rating, Canada Thistle [5, 9] | also measured
1 | CCOC(=O)Oc1c(C)nn(C)c(=O)c1-c1c(C)sc2ccc(C)cc12 [Compound 82] | 10 | 25 | 35 | 10 | 25 | 25 | 70 | 10 | 30 | 40 | 0 | 40 | 0 | 60 | 85 | 50 | 60 |  |  |  | Plant response rating, Poinsettia, Wild ([2]; 62 g ai/ha, Preemergence, scale 0 to 100 (0 no effect, 100 complete control)): 0; Plant response rating, Poinsettia, Wild [2, 16]: 50; Plant response rating, Poinsettia, Wild [2, 19]: 20; Plant response rating, Waterhemp_RES1 [3, 22]: 95; Plant response rating, Waterhemp_RES2 [4, 22]: 60
2 | CC(=O)Oc1c(C)nn(C)c(=O)c1-c1ccc(F)c2ccccc12 [Compound 90] | 70 | 100 | 100 | 15 | 70 | 90 | 98 | 80 | 50 | 60 |  | 35 |  | 50 | 80 | 50 | 70 | 98 | 100 | 98 | Plant response rating (scale of 0 to 100), Canada Thistle ([5]; Preemergence): 50; Plant response rating, Canada Thistle [5, 24]: 95; Plant response rating, Canada Thistle [5, 10]: 100; Plant response rating, Canada Thistle [5, 11]: 100; Plant response rating, Canada Thistle [5, 12]: 100; Geranium, Cutleaf plant response rating [6, 7]: 45; Plant response rating, Geranium, Cutleaf [6, 8]: 75; Plant response rating, Geranium, Cutleaf [6, 9]: 95; Plant response rating (scale of 0 to 100), Geranium, Cutleaf ([6]; Preemergence, 31 g ai/ha): 0; Plant response rating (scale of 0 to 100), Geranium, Cutleaf ([6]; Preemergence, 62 g ai/ha): 60; Plant response rating, Geranium, Cutleaf [6, 10]: 65; Plant response rating, Geranium, Cutleaf [6, 11]: 90; Plant response rating, Geranium, Cutleaf [6, 12]: 65; Plant response rating, Poinsettia, Wild [2, 25]: 20; Plant response rating, Waterhemp_RES1 [3, 26]: 50; Plant response rating, Waterhemp_RES2 [4, 26]: 50
3 | CCC(=O)Oc1c(C)nn(C)c(=O)c1-c1c(C)sc2ccc(Cl)cc12 [Compound 109] | 20 | 70 | 95 | 0 | 60 | 80 | 95 | 50 | 45 | 50 | 30 | 25 | 10 | 70 | 90 | 50 | 60 |  |  |  | Plant response rating, Poinsettia, Wild [2, 25]: 0; Plant response rating, Poinsettia, Wild ([2]; Preemergence, 16 g ai/ha, scale 0 to 100, 0 no effect, 100 complete control): 10; Plant response rating, Poinsettia, Wild [2, 27]: 25; Plant response rating, Waterhemp_RES1 [3, 26]: 60
4 | CC(=O)Oc1c(Br)nn(C)c(=O)c1-c1c(C)ccc2ccccc12 [Compound 129] | 35 | 70 | 95 | 60 | 75 | 75 | 95 | 40 |  |  |  |  |  |  |  |  |  | 100 | 100 | 100 | Plant response rating (scale of 0 to 100), Canada Thistle ([5]; Preemergence): 80; Plant response rating, Canada Thistle [5, 24]: 100; Plant response rating, Canada Thistle [5, 10]: 100; Plant response rating, Canada Thistle [5, 11]: 100; Plant response rating, Canada Thistle [5, 12]: 100; Geranium, Cutleaf plant response rating [6, 7]: 60; Plant response rating, Geranium, Cutleaf [6, 8]: 75; Plant response rating, Geranium, Cutleaf [6, 9]: 75; Plant response rating (scale of 0 to 100), Geranium, Cutleaf ([6]; Preemergence, 31 g ai/ha): 0; Plant response rating (scale of 0 to 100), Geranium, Cutleaf ([6]; Preemergence, 62 g ai/ha): 0; Plant response rating, Geranium, Cutleaf [6, 10]: 70; Plant response rating, Geranium, Cutleaf [6, 11]: 95; Plant response rating, Geranium, Cutleaf [6, 12]: 70
5 | CC(=O)Oc1c(C)nn(C)c(=O)c1-c1c(C)cc(C)c2ccccc12 [Compound 153] | 70 | 80 | 90 | 98 | 100 | 100 | 100 | 75 | 30 | 50 | 60 | 20 | 40 | 50 | 50 | 10 | 30 | 98 | 100 | 100 | Plant response rating (scale of 0 to 100), Canada Thistle ([5]; Preemergence): 100; Plant response rating, Canada Thistle [5, 24]: 100; Plant response rating, Canada Thistle [5, 10]: 100; Plant response rating, Canada Thistle [5, 11]: 100; Plant response rating, Canada Thistle [5, 12]: 98; Geranium, Cutleaf plant response rating [6, 7]: 75; Plant response rating, Geranium, Cutleaf [6, 8]: 90; Plant response rating, Geranium, Cutleaf [6, 9]: 98; Plant response rating (scale of 0 to 100), Geranium, Cutleaf ([6]; Preemergence, 31 g ai/ha): 35; Plant response rating (scale of 0 to 100), Geranium, Cutleaf ([6]; Preemergence, 62 g ai/ha): 75; Plant response rating, Geranium, Cutleaf [6, 10]: 85; Plant response rating, Geranium, Cutleaf [6, 11]: 90; Plant response rating, Geranium, Cutleaf [6, 12]: 90; Plant response rating, Poinsettia, Wild [2, 16]: 75; Plant response rating, Poinsettia, Wild [2, 19]: 75; Plant response rating, Poinsettia, Wild [2, 27]: 50; Plant response rating, Waterhemp_RES1 [3, 22]: 60; Plant response rating, Waterhemp_RES2 [4, 22]: 50
